Source: ChEMBL document CHEMBL1909046, “DrugMatrix in vitro pharmacology data”

Experiments:
[1] = biological target: Beta-1 adrenergic receptor (Homo sapiens, UniProt P08588); assay: DRUGMATRIX: Adrenergic beta1 radioligand binding (ligand: [125I] Cyanopindolol); assay type: cell membranes, CHO-K1, Membrane; conditions: cho-k1; Not Active = under 50% inhibition at 10 µM
[2] = biological target: T1, Vasoactive intestinal polypeptide receptor 1 (Homo sapiens, UniProt P32241); assay type: cell membranes, Membrane; conditions: ht-29; further: in other assays of this panel Not Active means under 50% inhibition at 10 µM
T1 sequence (P32241 whole entry): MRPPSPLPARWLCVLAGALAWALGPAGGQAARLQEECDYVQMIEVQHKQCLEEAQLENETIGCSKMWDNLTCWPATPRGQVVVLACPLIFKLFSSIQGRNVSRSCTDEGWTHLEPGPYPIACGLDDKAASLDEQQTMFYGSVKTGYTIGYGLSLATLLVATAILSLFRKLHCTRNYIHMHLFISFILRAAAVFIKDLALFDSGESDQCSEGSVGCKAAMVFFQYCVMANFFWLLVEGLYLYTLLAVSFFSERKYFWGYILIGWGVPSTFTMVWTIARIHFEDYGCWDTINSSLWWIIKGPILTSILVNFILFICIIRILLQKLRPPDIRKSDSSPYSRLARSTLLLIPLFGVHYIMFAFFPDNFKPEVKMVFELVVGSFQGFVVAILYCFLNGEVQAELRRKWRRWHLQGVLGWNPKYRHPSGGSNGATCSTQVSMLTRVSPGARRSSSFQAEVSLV

[3] = DRUGMATRIX: GABAA, Chloride Channel, TBOB radioligand binding (ligand: [3H] TBOB); assay type: cell membranes, Rattus norvegicus, Wistar, Cerebral cortex, Membrane; conditions: Not Active = under 50% inhibition at 10 µM
[4] = DRUGMATRIX: Glutamate, NMDA, Agonism radioligand binding (ligand: [3H] CGP-39653); assay type: cell membranes, Rattus norvegicus, Wistar, Cerebral cortex, Membrane; conditions: Not Active = under 50% inhibition at 10 µM
Histamine H2 receptor = Histamine H2 receptor (Homo sapiens, UniProt P25021); assay type: cell membranes, CHO-K1, Membrane; conditions: cho-k1; further: in other assays of this panel Not Active means under 50% inhibition at 10 µM
Histamine H2 receptor, sequence (P25021 whole entry): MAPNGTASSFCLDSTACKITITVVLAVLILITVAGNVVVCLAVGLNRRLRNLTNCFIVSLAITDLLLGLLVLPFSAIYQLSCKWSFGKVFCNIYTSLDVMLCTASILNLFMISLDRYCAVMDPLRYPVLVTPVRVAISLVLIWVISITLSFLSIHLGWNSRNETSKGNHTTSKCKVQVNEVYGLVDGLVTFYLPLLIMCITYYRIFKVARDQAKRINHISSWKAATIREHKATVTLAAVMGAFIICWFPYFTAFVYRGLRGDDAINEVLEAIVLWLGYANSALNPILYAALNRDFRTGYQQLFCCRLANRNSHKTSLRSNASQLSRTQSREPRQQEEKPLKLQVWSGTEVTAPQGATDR

[5] = biological target: T2, Angiotensin-converting enzyme (Oryctolagus cuniculus, UniProt P12822); assay type: tissue-based, Lung;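 further: enzymatic inhibition of angiotensin-converting enzyme measured with FAPGG as the substrate; in other assays of this panel Not Active means under 50% inhibition at 10 µM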
T2 sequence (P12822 whole entry): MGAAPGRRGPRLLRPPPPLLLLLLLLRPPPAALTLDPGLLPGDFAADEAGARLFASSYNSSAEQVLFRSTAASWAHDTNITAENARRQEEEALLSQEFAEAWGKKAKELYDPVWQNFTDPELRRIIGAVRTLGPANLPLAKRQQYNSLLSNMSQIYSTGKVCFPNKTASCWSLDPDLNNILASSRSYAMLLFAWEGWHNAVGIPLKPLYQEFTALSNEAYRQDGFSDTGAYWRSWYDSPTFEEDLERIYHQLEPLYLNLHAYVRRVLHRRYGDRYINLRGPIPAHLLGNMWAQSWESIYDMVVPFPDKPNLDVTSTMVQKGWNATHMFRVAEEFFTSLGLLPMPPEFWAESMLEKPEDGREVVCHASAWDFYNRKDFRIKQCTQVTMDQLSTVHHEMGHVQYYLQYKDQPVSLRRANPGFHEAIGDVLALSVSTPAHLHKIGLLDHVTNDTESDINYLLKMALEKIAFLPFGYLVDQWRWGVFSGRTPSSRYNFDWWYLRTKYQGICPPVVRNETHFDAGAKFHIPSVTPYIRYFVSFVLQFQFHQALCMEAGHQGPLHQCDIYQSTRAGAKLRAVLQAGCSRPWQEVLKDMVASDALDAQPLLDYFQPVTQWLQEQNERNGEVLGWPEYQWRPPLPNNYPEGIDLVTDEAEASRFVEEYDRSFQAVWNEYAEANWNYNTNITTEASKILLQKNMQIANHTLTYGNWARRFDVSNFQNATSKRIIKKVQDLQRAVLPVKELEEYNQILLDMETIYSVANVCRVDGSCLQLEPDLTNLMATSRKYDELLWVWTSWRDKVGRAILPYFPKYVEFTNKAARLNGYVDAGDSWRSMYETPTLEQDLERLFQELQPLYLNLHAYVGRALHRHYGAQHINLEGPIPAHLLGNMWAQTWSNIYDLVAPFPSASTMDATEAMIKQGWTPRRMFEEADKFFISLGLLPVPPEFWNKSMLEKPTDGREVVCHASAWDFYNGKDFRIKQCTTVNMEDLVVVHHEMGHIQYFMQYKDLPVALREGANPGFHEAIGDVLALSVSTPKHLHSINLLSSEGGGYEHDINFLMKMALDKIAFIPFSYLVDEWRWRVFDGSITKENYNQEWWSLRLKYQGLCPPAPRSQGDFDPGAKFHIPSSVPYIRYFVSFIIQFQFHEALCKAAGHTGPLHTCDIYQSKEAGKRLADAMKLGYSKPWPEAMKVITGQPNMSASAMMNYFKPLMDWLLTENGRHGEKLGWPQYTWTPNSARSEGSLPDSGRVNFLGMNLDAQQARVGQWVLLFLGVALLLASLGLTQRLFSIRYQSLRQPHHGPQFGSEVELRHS

Adenosine receptor A2a = Adenosine receptor A2a (Homo sapiens, UniProt P29274); assay: DRUGMATRIX: Adenosine A2A radioligand binding (ligand: […]); assay type: cell membranes, HEK293, Membrane; conditions: Not Active = under 50% inhibition at 10 µM
Adenosine receptor A2a, sequence (P29274 whole entry): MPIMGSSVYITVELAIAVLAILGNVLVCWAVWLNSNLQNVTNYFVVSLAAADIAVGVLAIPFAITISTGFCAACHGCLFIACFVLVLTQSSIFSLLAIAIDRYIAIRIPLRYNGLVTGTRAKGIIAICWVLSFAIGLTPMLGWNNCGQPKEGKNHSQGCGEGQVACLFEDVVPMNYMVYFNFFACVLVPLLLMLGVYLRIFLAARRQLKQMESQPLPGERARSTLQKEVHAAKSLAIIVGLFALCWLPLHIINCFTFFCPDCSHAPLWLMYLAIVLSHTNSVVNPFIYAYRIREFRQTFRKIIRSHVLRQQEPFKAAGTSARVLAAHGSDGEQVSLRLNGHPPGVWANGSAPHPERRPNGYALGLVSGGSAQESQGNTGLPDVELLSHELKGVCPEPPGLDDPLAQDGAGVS

Beta-1 adrenergic receptor, sequence (P08588 whole entry): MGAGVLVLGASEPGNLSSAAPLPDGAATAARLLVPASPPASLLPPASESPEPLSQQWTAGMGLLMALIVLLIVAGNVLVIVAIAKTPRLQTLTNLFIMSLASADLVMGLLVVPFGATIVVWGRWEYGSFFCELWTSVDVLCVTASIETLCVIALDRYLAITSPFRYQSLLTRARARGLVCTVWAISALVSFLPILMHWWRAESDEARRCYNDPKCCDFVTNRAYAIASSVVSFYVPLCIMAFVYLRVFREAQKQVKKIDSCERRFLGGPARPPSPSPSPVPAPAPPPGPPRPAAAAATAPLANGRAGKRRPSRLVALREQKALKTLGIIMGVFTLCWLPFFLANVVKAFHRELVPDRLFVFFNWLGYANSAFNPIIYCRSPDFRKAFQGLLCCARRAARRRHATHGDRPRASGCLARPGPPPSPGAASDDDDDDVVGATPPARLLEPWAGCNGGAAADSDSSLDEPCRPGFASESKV

With `COc1cc([C@@H]2c3cc4c(cc3[C@@H](O[C@@H]3O[C@@H]5CO[C@@H](C)O[C@H]5[C@H](O)[C@H]3O)[C@H]3COC(=O)[C@H]23)OCO4)cc(OC)c1O` [ETOPOSIDE] the IC50 [1] was “Not Active”, the IC50 [2] was “Not Active” and the IC50 [3] was “Not Active”. For the same molecule, the Ki [3] was “Not Active”, the IC50 [4] was “Not Active” and the Ki [4] was “Not Active”. For the same molecule, the IC50 (Histamine H2 receptor) was “Not Active”, the IC50 [5] was “Not Active” and the IC50 (Adenosine receptor A2a; hek293) was “Not Active”.

For `C=CCc1ccc(O)c(OC)c1` [EUGENOL], the IC50 [1] was “Not Active”, the IC50 [2] was “Not Active” and the IC50 [3] was “Not Active”. For the same molecule, the Ki [3] was “Not Active”, the IC50 [4] was “Not Active” and the Ki [4] was “Not Active”. For the same molecule, the IC50 (Histamine H2 receptor) was “Not Active”, the IC50 [5] was “Not Active” and the IC50 (Adenosine receptor A2a; hek293) was “Not Active”.

With `CC(C(=O)O)c1cccc(Oc2ccccc2)c1` (stereo not given) [FENOPROFEN] the IC50 [1] was “Not Active”, the IC50 [2] was “Not Active” and the IC50 [3] was “Not Active”. The Ki [3] was “Not Active”, the IC50 [4] was “Not Active” and the Ki [4] was “Not Active”. The IC50 (Histamine H2 receptor) was “Not Active”, the IC50 [5] was “Not Active” and the IC50 (Adenosine receptor A2a; hek293) was “Not Active”.

In the case of `CC(C)(C)NC(=O)[C@H]1CC[C@H]2[C@@H]3CC[C@H]4NC(=O)C=C[C@]4(C)[C@H]3CC[C@]12C` [FINASTERIDE], the IC50 [1] is reported as “Not Active”, the IC50 [2] is reported as “Not Active” and the IC50 [3] is reported as “Not Active”. The Ki [3] was “Not Active”, the IC50 [4] was “Not Active” and the Ki [4] was “Not Active”. The IC50 (Histamine H2 receptor) was “Not Active”, the IC50 [5] was “Not Active” and the IC50 (Adenosine receptor A2a; hek293) was “Not Active”.

For `COc1ccc2c3c1O[C@H]1C[C@@H](O)C=C[C@@]31CCN(C)C2` [GALANTAMINE], the IC50 [1] was “Not Active”, the IC50 [2] was “Not Active” and the IC50 [3] was “Not Active”. The Ki [3] was “Not Active”, the IC50 [4] was “Not Active” and the Ki [4] was “Not Active”. The IC50 (Histamine H2 receptor) was “Not Active”, the IC50 [5] was “Not Active” and the IC50 (Adenosine receptor A2a; hek293) was “Not Active”.

For `Nc1ccn([C@@H]2O[C@H](CO)[C@@H](O)C2(F)F)c(=O)n1` [GEMCITABINE], the IC50 [1] was “Not Active”, the IC50 [2] was “Not Active” and the IC50 [3] was “Not Active”. The Ki [3] was “Not Active”, the IC50 [4] was “Not Active” and the Ki [4] was “Not Active”. For the same molecule, the IC50 (Histamine H2 receptor) was “Not Active”, the IC50 [5] was “Not Active” and the IC50 (Adenosine receptor A2a; hek293) was “Not Active”.

With `CC(C)=CCC/C(C)=C/CO` [GERANIOL] the IC50 [1] was “Not Active”, the IC50 [2] was “Not Active” and the IC50 [3] was “Not Active”. The Ki [3] was “Not Active”, the IC50 [4] was “Not Active” and the Ki [4] was “Not Active”. For the same molecule, the IC50 (Histamine H2 receptor) was “Not Active”, the IC50 [5] was “Not Active” and the IC50 (Adenosine receptor A2a; hek293) was “Not Active”.

With `N=C(N)NC(=O)Cc1c(Cl)cccc1Cl` [GUANFACINE] the IC50 [1] was “Not Active”, the IC50 [2] was “Not Active” and the IC50 [3] was “Not Active”. The Ki [3] was “Not Active”, the IC50 [4] was “Not Active” and the Ki [4] was “Not Active”. For the same molecule, the IC50 (Histamine H2 receptor) was “Not Active”, the IC50 [5] was “Not Active” and the IC50 (Adenosine receptor A2a; hek293) was “Not Active”.

For `Oc1c(Cl)cc(Cl)c(Cl)c1Cc1c(O)c(Cl)cc(Cl)c1Cl` [HEXACHLOROPHENE], the IC50 [1] was “Not Active”, the IC50 [2] was “Not Active” and the IC50 [3] was “Not Active”. For the same molecule, the Ki [3] was “Not Active”, the IC50 [4] was “Not Active” and the Ki [4] was “Not Active”. For the same molecule, the IC50 (Histamine H2 receptor) was “Not Active”, the IC50 [5] was “Not Active” and the IC50 (Adenosine receptor A2a; read-out: IC50) was 1610 nM. The Ki (Adenosine receptor A2a; read-out: Ki) was 906 nM.

With `NNc1nncc2ccccc12` [HYDRALAZINE] the IC50 [1] was “Not Active”, the IC50 [2] was “Not Active” and the IC50 [3] was “Not Active”. For the same molecule, the Ki [3] was “Not Active”, the IC50 [4] was “Not Active” and the Ki [4] was “Not Active”. The IC50 (Histamine H2 receptor) was “Not Active”, the IC50 [5] was “Not Active” and the IC50 (Adenosine receptor A2a; hek293) was “Not Active”.

For `CC(=O)[C@@]1(O)CC[C@H]2[C@@H]3CCC4=CC(=O)CC[C@]4(C)[C@H]3CC[C@@]21C` [HYDROXYPROGESTERONE], the IC50 [1] was “Not Active”, the IC50 [2] was “Not Active” and the IC50 [3] was “Not Active”. For the same molecule, the Ki [3] was “Not Active”, the IC50 [4] was “Not Active” and the Ki [4] was “Not Active”. The IC50 (Histamine H2 receptor) was “Not Active”, the IC50 [5] was “Not Active” and the IC50 (Adenosine receptor A2a; hek293) was “Not Active”.
